Data as given in patent publication US12275731B2, “Azaindole inhibitors of wild-type and mutant forms of LRRK2” (DANA-FARBER CANCER INSTITUTE, INC., priority 2018, dated 2025).

Key:
Test in all cases: KinomeScan profiling
Assay type in all cases: binding
DMPK = biological target: T1, DMPK (Homo sapiens, UniProt Q09013); conditions: read-out: % control
T1 sequence (Q09013 1-629): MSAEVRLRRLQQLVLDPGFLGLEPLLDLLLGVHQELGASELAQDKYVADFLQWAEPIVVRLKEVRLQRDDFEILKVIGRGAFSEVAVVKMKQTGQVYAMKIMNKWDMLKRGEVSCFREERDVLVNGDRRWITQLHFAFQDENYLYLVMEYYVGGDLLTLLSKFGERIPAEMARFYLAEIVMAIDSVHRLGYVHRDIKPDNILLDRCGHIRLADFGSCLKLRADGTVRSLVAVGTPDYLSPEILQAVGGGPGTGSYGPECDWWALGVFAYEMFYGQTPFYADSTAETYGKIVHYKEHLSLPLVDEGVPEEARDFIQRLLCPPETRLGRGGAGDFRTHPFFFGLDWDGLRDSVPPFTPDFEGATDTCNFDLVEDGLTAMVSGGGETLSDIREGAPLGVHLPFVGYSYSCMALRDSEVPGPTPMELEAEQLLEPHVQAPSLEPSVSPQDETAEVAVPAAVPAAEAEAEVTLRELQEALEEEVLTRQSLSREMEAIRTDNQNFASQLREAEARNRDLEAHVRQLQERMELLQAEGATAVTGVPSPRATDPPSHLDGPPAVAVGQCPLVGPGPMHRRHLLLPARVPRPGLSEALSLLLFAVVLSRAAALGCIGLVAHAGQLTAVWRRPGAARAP
How it was run: (§1)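 Percent-of-control values derive from RLU, calculated as (test − positive)/(negative − positive) × 100, where DMSO defines 100% and a positive control compound defines 0%. Each compound was tested at 1 μM in the 468-kinase panel; sub-35% readings indicate activity.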

MRCKA = MRCKA (Homo sapiens, UniProt Q5VT25); conditions: read-out: % control
Sequence of MRCKA (Q5VT25 whole entry): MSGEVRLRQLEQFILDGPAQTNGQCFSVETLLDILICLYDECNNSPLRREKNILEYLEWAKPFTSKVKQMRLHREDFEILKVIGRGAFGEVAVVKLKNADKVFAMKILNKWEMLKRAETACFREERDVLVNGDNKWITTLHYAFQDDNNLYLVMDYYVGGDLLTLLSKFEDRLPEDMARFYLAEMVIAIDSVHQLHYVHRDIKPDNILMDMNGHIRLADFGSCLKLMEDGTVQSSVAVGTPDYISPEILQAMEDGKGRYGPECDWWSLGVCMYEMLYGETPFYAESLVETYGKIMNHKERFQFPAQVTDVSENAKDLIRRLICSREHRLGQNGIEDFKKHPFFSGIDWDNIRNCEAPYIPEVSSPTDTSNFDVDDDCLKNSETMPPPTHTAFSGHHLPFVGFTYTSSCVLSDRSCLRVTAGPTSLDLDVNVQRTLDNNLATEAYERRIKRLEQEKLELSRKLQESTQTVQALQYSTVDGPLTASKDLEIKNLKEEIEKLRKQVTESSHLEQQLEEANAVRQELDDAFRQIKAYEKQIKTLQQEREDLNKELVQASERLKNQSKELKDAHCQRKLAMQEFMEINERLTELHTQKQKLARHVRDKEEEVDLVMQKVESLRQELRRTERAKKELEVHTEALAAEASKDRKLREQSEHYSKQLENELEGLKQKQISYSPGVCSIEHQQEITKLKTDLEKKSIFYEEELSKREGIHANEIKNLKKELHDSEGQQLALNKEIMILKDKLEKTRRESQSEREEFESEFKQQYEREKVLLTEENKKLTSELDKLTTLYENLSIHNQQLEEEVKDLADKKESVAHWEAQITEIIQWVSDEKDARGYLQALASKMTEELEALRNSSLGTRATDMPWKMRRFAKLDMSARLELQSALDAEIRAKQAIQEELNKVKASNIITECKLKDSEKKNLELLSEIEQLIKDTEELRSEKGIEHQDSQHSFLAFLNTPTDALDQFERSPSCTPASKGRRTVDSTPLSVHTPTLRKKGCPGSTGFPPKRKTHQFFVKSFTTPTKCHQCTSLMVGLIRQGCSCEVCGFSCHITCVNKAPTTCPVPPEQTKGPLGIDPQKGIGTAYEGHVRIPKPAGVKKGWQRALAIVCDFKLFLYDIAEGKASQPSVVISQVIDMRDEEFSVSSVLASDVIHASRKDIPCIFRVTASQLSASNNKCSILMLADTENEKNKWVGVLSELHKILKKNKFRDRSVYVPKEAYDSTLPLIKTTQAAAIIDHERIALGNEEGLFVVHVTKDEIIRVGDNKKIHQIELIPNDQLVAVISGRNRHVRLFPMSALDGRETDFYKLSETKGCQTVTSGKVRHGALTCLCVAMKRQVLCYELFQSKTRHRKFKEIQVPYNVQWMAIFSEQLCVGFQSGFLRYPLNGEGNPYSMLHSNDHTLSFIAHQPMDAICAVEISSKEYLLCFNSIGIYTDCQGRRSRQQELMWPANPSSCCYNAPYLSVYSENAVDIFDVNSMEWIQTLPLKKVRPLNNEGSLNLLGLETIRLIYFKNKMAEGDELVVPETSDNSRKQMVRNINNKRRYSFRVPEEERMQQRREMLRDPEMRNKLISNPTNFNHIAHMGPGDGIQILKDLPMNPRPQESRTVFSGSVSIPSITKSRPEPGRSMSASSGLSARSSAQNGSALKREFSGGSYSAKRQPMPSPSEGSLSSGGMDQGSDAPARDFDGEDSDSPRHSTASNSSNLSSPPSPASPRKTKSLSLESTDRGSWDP
How it was run: as §1

EIF2AK1 = EIF2AK1 (Homo sapiens, UniProt Q9BQI3); conditions: EIF2AK1, 1 μM; read-out: % control
Sequence of EIF2AK1 (Q9BQI3 whole entry): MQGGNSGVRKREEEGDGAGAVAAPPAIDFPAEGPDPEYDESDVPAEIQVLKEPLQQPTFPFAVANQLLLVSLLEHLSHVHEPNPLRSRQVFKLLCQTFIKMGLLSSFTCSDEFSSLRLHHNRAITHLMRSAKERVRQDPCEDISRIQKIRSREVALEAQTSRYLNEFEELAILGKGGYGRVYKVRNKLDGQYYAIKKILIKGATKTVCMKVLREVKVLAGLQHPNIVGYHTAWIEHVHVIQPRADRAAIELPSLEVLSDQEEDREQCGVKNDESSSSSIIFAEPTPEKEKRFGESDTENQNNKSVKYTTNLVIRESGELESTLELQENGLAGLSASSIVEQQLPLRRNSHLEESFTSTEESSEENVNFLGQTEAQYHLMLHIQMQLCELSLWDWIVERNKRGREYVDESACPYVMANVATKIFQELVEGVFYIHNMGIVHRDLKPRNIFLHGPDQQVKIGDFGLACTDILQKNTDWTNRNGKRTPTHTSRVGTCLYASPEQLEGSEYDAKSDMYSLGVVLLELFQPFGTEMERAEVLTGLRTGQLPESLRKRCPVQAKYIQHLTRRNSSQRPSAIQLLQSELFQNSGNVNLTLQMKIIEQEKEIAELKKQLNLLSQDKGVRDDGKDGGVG
How it was run: as §1

PIK3CA(H1047L) = biological target: T2, PIK3CA(H1047L) (Homo sapiens, UniProt P42336, H1047L); conditions: read-out: % control
T2 construct: purchased KinomeScan® (panel service)
T2 sequence (P42336 whole entry H1047L): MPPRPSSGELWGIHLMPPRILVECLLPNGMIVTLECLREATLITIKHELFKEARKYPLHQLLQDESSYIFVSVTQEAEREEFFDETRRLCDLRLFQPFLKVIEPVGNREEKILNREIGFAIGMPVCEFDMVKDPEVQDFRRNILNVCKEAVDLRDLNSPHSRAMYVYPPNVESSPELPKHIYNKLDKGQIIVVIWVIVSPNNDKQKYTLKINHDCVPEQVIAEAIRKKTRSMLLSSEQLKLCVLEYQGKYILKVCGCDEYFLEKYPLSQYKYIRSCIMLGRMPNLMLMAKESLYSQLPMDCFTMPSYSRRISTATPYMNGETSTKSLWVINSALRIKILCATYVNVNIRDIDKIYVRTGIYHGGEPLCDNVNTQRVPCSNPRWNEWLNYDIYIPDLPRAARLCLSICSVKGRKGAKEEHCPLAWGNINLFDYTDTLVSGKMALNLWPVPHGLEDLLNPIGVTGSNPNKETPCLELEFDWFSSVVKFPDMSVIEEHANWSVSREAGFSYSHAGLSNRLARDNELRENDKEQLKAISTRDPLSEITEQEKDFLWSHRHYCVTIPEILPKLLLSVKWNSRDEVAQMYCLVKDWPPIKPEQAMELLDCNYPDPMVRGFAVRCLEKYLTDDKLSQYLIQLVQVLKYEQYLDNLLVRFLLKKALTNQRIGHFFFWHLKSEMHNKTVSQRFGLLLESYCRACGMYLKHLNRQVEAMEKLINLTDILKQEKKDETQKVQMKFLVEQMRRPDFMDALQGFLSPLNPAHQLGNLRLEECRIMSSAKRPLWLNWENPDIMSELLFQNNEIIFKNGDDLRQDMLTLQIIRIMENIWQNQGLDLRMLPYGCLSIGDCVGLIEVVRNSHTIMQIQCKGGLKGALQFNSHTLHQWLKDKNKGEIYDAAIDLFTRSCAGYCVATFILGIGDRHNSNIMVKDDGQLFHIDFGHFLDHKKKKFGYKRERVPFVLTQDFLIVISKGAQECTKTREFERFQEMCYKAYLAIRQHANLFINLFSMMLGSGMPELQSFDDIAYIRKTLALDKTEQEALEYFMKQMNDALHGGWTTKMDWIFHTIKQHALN
How it was run: as §1

DCAMKL2 = biological target: T3, DCAMKL2 (Homo sapiens, UniProt Q8N568); conditions: DCAMKL2, 1 μM; read-out: % control
T3 sequence (Q8N568 1-766): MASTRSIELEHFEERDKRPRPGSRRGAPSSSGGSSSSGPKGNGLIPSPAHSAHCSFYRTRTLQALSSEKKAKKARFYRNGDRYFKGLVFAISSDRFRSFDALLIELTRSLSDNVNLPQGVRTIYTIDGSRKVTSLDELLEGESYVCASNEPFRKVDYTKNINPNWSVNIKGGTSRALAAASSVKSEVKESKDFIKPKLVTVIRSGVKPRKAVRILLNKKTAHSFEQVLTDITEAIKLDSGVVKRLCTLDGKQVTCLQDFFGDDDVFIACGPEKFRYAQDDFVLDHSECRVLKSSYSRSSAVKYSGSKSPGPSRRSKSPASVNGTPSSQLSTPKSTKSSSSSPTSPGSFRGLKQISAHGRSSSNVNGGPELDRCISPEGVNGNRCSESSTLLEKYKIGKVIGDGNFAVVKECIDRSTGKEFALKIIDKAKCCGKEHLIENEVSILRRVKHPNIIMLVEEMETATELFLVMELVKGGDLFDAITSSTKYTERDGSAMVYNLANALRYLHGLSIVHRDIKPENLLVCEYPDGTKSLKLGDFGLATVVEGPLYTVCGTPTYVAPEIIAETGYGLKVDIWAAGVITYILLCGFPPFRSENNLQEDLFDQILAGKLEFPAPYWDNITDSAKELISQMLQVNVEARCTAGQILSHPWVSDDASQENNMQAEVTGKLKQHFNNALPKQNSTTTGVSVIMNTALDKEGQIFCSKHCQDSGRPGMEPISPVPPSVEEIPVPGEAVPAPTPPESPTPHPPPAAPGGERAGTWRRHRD
How it was run: as §1

MET = MET (Homo sapiens, UniProt P08581); conditions: read-out: % control
Sequence of MET (P08581 25-1390): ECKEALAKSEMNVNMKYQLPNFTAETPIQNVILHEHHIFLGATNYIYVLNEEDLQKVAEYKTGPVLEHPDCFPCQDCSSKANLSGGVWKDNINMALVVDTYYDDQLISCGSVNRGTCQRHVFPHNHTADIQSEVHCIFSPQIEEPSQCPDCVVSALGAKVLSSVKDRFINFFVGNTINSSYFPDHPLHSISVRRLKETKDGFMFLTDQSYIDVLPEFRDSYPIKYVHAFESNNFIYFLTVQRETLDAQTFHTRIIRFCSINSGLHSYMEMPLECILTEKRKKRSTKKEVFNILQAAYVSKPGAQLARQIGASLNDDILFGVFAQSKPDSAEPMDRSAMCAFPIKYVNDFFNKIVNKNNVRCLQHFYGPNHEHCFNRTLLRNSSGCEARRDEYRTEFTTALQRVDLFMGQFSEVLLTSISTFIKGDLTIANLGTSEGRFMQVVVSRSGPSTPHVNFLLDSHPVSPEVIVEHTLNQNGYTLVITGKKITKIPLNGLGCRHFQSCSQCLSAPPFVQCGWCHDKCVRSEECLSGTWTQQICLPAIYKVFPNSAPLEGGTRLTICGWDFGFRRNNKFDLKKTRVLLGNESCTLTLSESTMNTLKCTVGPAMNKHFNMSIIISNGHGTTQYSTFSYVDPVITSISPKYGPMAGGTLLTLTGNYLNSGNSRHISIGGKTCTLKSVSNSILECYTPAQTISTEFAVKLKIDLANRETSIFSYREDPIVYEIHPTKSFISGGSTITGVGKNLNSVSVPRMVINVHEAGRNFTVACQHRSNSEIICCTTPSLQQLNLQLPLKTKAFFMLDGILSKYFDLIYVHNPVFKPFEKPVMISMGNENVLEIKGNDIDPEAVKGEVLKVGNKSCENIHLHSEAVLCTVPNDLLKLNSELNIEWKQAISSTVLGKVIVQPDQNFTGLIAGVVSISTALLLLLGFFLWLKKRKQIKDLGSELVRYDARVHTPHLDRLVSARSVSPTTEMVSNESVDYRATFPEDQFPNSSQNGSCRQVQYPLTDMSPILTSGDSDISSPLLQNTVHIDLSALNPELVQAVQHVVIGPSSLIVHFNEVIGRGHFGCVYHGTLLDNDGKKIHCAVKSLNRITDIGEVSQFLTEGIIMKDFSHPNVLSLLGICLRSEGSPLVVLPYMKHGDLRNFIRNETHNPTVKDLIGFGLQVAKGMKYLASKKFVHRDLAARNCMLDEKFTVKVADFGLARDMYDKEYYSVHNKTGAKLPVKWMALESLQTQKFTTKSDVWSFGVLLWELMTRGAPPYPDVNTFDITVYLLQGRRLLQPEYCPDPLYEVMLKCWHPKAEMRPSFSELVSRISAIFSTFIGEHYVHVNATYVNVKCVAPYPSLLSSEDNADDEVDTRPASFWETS
How it was run: as §1

PRKCE = biological target: T4, PRKCE (Homo sapiens, UniProt Q02156); conditions: read-out: % control
T4 sequence (Q02156 1-737): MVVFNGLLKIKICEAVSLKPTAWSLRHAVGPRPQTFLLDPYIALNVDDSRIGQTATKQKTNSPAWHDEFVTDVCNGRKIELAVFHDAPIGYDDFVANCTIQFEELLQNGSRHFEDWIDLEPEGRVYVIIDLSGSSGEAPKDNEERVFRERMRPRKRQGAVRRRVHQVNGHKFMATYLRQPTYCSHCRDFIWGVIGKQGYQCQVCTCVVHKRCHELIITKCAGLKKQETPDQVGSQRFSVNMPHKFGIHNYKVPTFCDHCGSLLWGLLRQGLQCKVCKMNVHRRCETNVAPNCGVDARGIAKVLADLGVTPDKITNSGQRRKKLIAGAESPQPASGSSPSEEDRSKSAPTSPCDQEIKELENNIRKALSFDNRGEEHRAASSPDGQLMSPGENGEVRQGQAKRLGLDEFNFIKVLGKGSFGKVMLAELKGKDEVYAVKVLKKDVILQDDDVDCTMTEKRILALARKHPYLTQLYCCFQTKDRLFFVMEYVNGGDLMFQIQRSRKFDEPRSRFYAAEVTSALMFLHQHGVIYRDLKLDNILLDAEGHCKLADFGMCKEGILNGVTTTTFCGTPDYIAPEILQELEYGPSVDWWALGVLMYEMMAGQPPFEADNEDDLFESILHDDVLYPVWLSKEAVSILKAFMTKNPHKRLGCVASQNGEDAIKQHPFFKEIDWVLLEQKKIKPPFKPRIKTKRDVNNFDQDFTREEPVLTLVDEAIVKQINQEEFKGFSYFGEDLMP
How it was run: as §1

CNc1c(-c2ccc(C(=O)N3CCC(N4CCOCC4)CC3)cc2)cnc2[nH]cc(Cl)c12 [Compound 96, (4-(3-chloro-4-(methylamino)-1H-pyrrolo[2,3-b]pyridin-5-yl)phenyl)(4-morpholinopiperidin-1-yl)methanone]
remaining binding at 1 µM (DMPK): 36% | remaining binding at 1 µM (MRCKA): 100% | remaining binding at 1 µM (EIF2AK1): 100% | remaining binding at 1 µM (PIK3CA(H1047L)): 92% | remaining binding at 1 µM (DCAMKL2): 78% | remaining binding at 1 µM (MET): 84% | remaining binding at 1 µM (PRKCE): 66%

O=C(c1ccc(-c2cnc3[nH]cc(Cl)c3c2NC2CCCC2)cc1)N1CCC(N2CCOCC2)CC1 [Compound 101, (4-(3-chloro-4-(cyclopentylamino)-1H-pyrrolo[2,3-b]pyridin-5-yl)phenyl)(4-morpholinopiperidin-1-yl)methanone]
remaining binding at 1 µM (DMPK): 52% | remaining binding at 1 µM (MRCKA): 100% | remaining binding at 1 µM (EIF2AK1): 100% | remaining binding at 1 µM (PIK3CA(H1047L)): 100% | remaining binding at 1 µM (DCAMKL2): 99% | remaining binding at 1 µM (MET): 16% | remaining binding at 1 µM (PRKCE): 70%

CNc1c(-c2cnn([C@H]3CCN(C(C)=O)C[C@@H]3F)c2)cnc2[nH]cc(Cl)c12 [Compound 77, 1-((3S,4S)-4-(4-(3-chloro-4-(methylamino)-1H-pyrrolo[2,3-b]pyridin-5-yl)-1H-pyrazol-1-yl)-3-fluoropiperidin-1-yl)ethan-1-one]
remaining binding at 1 µM (DMPK): 36% | remaining binding at 1 µM (MRCKA): 100% | remaining binding at 1 µM (EIF2AK1): 100% | remaining binding at 1 µM (PIK3CA(H1047L)): 97% | remaining binding at 1 µM (DCAMKL2): 89% | remaining binding at 1 µM (MET): 63% | remaining binding at 1 µM (PRKCE): 51%
